Measured values reported in PMC6749586, “Design, Synthesis, and Anticancer Effect Studies of Iridium(III) Polypyridyl Complexes against SGC-7901 Cells” (Molecules, 2019).

Experiments:
SGC-7901 cells [1] = experiment: Mitochondrial membrane potential assay with JC-1; type: cell-based, human; conditions: 24 h; for Ratio of red/green JC-1 fluorescence intensity (R), complex + NAC: 4.0 µM 1, 15.0 µM 2, 15.0 µM 3, in the presence of NAC; for Ratio of red/green JC-1 fluorescence intensity (R): substance alone: 4.0 µM 1, 15.0 µM 2, 15.0 µM 3, CCCP or NAC, control 12.03
Procedure: The SGC-7901 cells were seeded into a 12-well plate at a density of 1.5 × 10^5 cells per well and incubated to attach at 37 °C in 5% CO2. Overnight, the cells were treated with complexes 1–3 for 24 h. CCCP was used as a positive control. Then, the cells were incubated with JC-1 for 30 min at room temperature, after which the remaining dye was washed away with PBS. The samples were then observed under the ImageXpress Micro XLS system and flow cytometry was employed to quantify the fluorescence intensity.

[2] = Oil-water partition coefficient, flask-shake method; type: physicochemical; conditions: octanol/water, pH 7.4, flask-shake, 25 °C
Procedure: The pH of the cells cultured in vitro was approximately 7.4. With this in mind, we evaluated the lipophilicity of the iridium complexes by detecting the partition coefficient at pH = 7.4, using the flask-shake method. Each drug was dissolved in pre-saturated octanol at final concentrations of 0.02 and 0.03 mM. Aliquots of 5 mL of drug solution and distilled water (previously saturated with octanol) were transferred to a 25 mL flask and shaked at 25 °C for 24 h. After the shaking was completed, the solution was allowed to stand for 48 h to fully equilibrate the aqueous phase and the organic phase. The concentration of the complexes in the aqueous phase was then measured by UV-vis spectroscopy at the maximum ultraviolet absorption (262 nm for 1, 249 nm for 2, and 251 nm for 3). The evaluation of each sample was repeated three times.

SGC-7901 cells [3] = experiment: MTT cytotoxicity assay, SGC-7901; type: cell-based, human; conditions: 48 h; for IC50: read-out: IC50 toward SGC-7901
From the text: (§1) The lung carcinoma cell line A549, the cervical cancer cell line HeLa, the esophageal cancer cell line Eca-109, and the human hepatocellular carcinoma cell line BEL-7402 were purchased from the cell bank of the Cell Institute of Sinica Academia Shanghai (Shanghai, China). The gastric adenocarcinoma cell line SGC-7901, the hepatocellular carcinoma cell line HepG2, and the mouse embryonic fibroblast cell line NIH 3T3 were obtained from the Experimental Animal Center of Sun Yat-Sen University (Guangzhou, China). The BEL-7402 and SGC-7901 cell lines were cultured in Roswell Park Memorial Institute Medium (RPMI-1640); and A549, Eca-109, HepG2, and NIH 3T3 cells were grown in Dulbecco’s Modified Eagle’s Medium (DMEM), including 10% fetal bovine serum (FBS), 100 units mL^−1 penicillin/streptomycin mixture, and 2.0 g/L of NaHCO3. Cell passage experiments were performed with trypsin every 2 days to maintain exponential growth. All cells were cultured until they reached logarithmic growth phase, unless specifically noted.
(§2) Cell cytotoxicity following treatment with the iridium(III) complexes was detected by MTT assay. The cells were seeded into 96-well micro-assay culture plates (1 × 10^4 cells per well) and grown overnight in a 5% CO2 incubator at 37 °C. Then, the cell lines were treated with gradient concentrations of the complexes 1–3. After treatment for 48 h, MTT solution (5 mg mL^−1, […]) dissolved in phosphate buffer was added to each well and the cells were further cultured for 4 h. Upon completion of incubation, the solvent was removed and 100 µL/well of buffer containing dimethylformamide (50%) and sodium dodecyl sulfate (20%) was added to dissolve the produced formazan. The absorbance of each well was measured with a microplate reader at a wavelength of 490 nm. The IC50 values were determined from the plots of viability versus concentration used to treat the cells. Three independent experiments were performed to obtain the mean values.

SGC-7901 cells [4] = experiment: Cell cycle assay (PI, flow cytometry); type: cell-based, human; conditions: for Percentage in the cells, G0/G1 phase / Phase of cell cycle arrest / Percentage in the cells, G2/M phase / Percentage in the cells, S phase: 4.0 µM 1, 15.0 µM 2, 15.0 µM 3, 24 h; for Percentage in the cells, G2/M phase: control 14.92%; for Percentage in the cells, S phase: control 37.46%
Procedure: Then, each sample was washed twice with cold PBS, re-suspended in 190 μL of PBS buffer containing 4 μL of PI (1 mg/mL), 4 μL of RnaseA (10 mg/mL) and 0.2 μL of Tritonx-100, and stained in the dark for 30 min. Finally, the cells were analyzed by flow cytometry

SGC-7901 cells [5] = experiment: Transwell cell invasion assay; type: cell-based, human; conditions: 4.0 µM 1, 15.0 µM 2, 15.0 µM 3, 24 h, Matrigel Transwell
Procedure: To analyze the efficacy of the iridium(III) complexes in preventing migration and offsetting the invasion potential of SGC-7901 cells, 24-well Transwell chambers coated with matrigel were used. The cells were trypsinized and re-suspended in serum-free RPMI-1640 at a density of 1.8 × 10^5 cells/mL. Then, 100 μL of the cell suspension and different concentrations of the complexes were placed in the top chambers of the Transwell plates, and 500 μL of RPMI-1640 containing 20% FBS was added to the lower chambers. After co-incubation for 24 h, non-invading cells in the top chambers of the Transwell plates were scraped away by cotton swabs, and invaded cells were fixed with paraformaldehyde for 15 min and stained with crystal violet solution (0.1%) for 20 min. The cells that invaded the underside of the Transwell plates were photographed with a microscope.

SGC-7901 cells [6] = experiment: Intracellular Ca2+ level with Fluo-3AM; type: cell-based, human; conditions: 4.0 µM 1, 15.0 µM 2, 15.0 µM 3, 24 h; controls weak green fluorescence
Procedure: SGC-7901 cells in the logarithmic growth phase were seeded in 12-well microassay culture plates (1.5 × 10^5 cells per well), incubated overnight, and then treated with different concentrations of the tested complexes (4.0 µM 1, 15.0 μM 2, and 15.0 μM 3) for 24 h. The control wells were prepared by the addition of solvent (10 μL PBS buffer). The concentration of Ca^2+ was detected using the Ca^2+-sensitive fluorescent probe Fluo-3AM. Upon completion of incubation, the medium was removed and the wells were washed twice with PBS buffer, following which the cells were dyed with Fluo-3AM for 30 min. After dyeing, the cells were washed again and stained with Hoechst 33258 (10 μg mL^−1) for 30 min. The remaining dye was removed and the cells were observed under an ImageXpress Micro XLS system.

HepG2 cells = experiment: MTT cytotoxicity assay, HepG2; type: cell-based, human; conditions: 48 h, read-out: IC50 toward HepG2
From the text: as §1, §2

NIH 3T3 cells = experiment: MTT cytotoxicity assay, normal NIH 3T3; type: cell-based, mouse; conditions: 48 h, read-out: IC50 toward NIH 3T3
From the text: as §1, §2

SMILES	Ratio of red/green JC-1 fluorescence intensity (R), complex + NAC (SGC-7901 cells [1])	Ratio of red/green JC-1 fluorescence intensity (R) (SGC-7901 cells [1])	logPo/w [2]	IC50 toward SGC-7901 (SGC-7901 cells [3])	IC50 (SGC-7901 cells [3]) [µM]	Percentage in the cells, G0/G1 phase (SGC-7901 cells [4]) [%]	Phase of cell cycle arrest (SGC-7901 cells [4])	Percentage in the cells, G2/M phase (SGC-7901 cells [4]) [%]	Percentage in the cells, S phase (SGC-7901 cells [4]) [%]	Inhibitory percentage of cell invasion (SGC-7901 cells [5]) [%]	Intracellular Ca2+ level, Fluo-3AM fluorescence (SGC-7901 cells [6])	IC50 (HepG2 cells) [µM]	IC50 (NIH 3T3 cells) [µM]	Increase in the cells at the G0/G1 phase versus control (SGC-7901 cells [4]; 15.0 µM, 24 h) [%]
F[P-](F)(F)(F)(F)F.O=[N+]([O-])c1cc2ccc[n+]3c2c2c1ccc[n+]2[Ir-5]312([c]3ccccc3-c3cccc[n+]31)[c]1ccccc1-c1cccc[n+]12 [Complex 1, [Ir(Hppy)2(NP)]PF6]	1.86	0.43	1.01	the same cytotoxicity as cisplatin	3.6 ± 0.1	50.28	inhibited cell proliferation at the S phase	6.70	43.02	51.09	brilliant green fluorescence	30.9 ± 0.7	14.6 ± 1.3	
F[P-](F)(F)(F)(F)F.Nc1c(N)c2cccnc2c2ncccc12.[Ir+3].[c-]1ccccc1-c1ccccn1.[c-]1ccccc1-c1ccccn1 [Complex 3, [Ir(Hppy)2(DAP)]PF6]		1.49	0.78		11.1 ± 1.3	44.79	inhibited cell proliferation at the S phase	10.50	44.71	48.90	brilliant green fluorescence	95 ± 9.1	> 100	
F[P-](F)(F)(F)(F)F.Nc1c([N+](=O)[O-])c2cccnc2c2ncccc12.[Ir+3].[c-]1ccccc1-c1ccccn1.[c-]1ccccc1-c1ccccn1 [Complex 2, [Ir(Hppy)2(NAP)]PF6]	17.99	7.12	1.33		14.1 ± 0.5	56.65	cell cycle arrest at G0/G1	5.49	37.86	46.01	brilliant green fluorescence	99 ± 14.7	23 ± 1.5	9.03
